Reference: PMC10766639, “Synthesis, in vitro potency of inhibition, enzyme kinetics and in silico studies of quinoline-based α-glucosidase inhibitors” (Scientific Reports, 2024)
Read-outs that look alike come from different tables or passages of the source. Each block holds one compound with its values, some of them ahead of it.

Tests used:
α-glucosidase [1] = target: α-glucosidase; set-up: method as in PMID 36782003, PMID 35982225, PMID 36928433, PMID 37188744, doi:10.1039/C5MD00280J; conditions: cited from earlier work
[2] = target: Saccharomyces cerevisiae α-glucosidase enzyme (EC. 3. 2. 1. 20) (Saccharomyces cerevisiae, UniProt P38158); assay: In vitro α-glucosidase inhibitory activity; format: biochemical
Sequence of Saccharomyces cerevisiae α-glucosidase enzyme (EC. 3. 2. 1. 20) (P38158 whole entry): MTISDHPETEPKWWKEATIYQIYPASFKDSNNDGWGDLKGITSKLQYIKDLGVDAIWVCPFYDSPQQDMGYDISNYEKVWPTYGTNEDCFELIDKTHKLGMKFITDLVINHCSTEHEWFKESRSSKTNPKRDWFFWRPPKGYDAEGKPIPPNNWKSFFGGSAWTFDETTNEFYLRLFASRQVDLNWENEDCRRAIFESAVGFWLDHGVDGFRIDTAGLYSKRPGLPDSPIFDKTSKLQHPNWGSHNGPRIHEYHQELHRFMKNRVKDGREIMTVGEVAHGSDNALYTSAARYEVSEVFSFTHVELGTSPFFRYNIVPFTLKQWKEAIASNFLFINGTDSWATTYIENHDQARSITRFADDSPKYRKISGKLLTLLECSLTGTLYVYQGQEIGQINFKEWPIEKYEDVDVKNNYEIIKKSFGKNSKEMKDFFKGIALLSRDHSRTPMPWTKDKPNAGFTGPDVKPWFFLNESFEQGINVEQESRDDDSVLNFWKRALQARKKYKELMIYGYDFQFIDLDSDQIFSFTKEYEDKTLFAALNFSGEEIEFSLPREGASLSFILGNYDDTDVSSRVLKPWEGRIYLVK
From the text: In order to conduct the enzyme assay, the Saccharomyces cerevisiae α-glucosidase enzyme (EC. 3. 2. 1. 20) have been used.

[3] = Concentrations of precipitation; format: physicochemical
From the text: Table 1 α-Glucosidase inhibitory activity of compounds 8a–t. | column: Concentrations of precipitation (µM)

α-glucosidase [4] = target: α-glucosidase (Saccharomyces cerevisiae, UniProt P38158); assay: Enzyme kinetic study (Lineweaver–Burk plot); format: biochemical
Sequence of α-glucosidase (Saccharomyces cerevisiae, UniProt P38158) (P38158 whole entry): as above
From the text: A Lineweaver–Burk plot was generated to recognize the type of inhibition and the Michaelis–Menten constant (Km) value was defined from the plot between the reciprocal of the substrate concentration (1/[S]) and reciprocal of enzyme rate (1/V) over different concentrations of inhibitor.

Compound: O=C(N/N=C/c1cc(O)c(O)cc1O)c1ccc(-c2nnc(-c3ccc4ncccc4c3)o2)cc1 [A]
IC50 (α-glucosidase [1]; Fig. 2, study of compound A with its acarbose standard): 2.6 ± 0.01 µM

Compound: O=C(CSc1nc2ccccc2cc1-c1nc2ccccc2s1)Nc1ncc([N+](=O)[O-])s1 [Compound 8o, 2-((3-(benzo[d]thiazol-2-yl)quinolin-2-yl)thio)-N-(5-nitrothiazol-2-yl)acetamide]
melting point: 199 to 201 °C
IC50 [2]: 47.2 ± 0.6 µM
Concentrations of precipitation [3]: > 90 µM

IC50 ([2]; α-glucosidase, mean ± SD of three independent determinations of triplicate samples, read-out: IC50): 65.9 ± 1 µM
Concentrations of precipitation [3]: > 90 µM
Compound: 2-((3-(benzo[d]thiazol-2-yl)quinolin-2-yl)thio)-N-(4-methyl-2-nitrophenyl)acetamide [Compound 8n]

Compound: O=C(CSc1nc2ccccc2cc1-c1nc2ccccc2s1)NCc1ccc(F)cc1 [Compound 8s, 2-((3-(benzo[d]thiazol-2-yl)quinolin-2-yl)thio)-N-(4-fluorobenzyl)acetamide]
melting point: 213 to 215 °C
IC50 [2]: 130.1 ± 0.7 µM
Less activity compared to phenyl one ([2]; α-glucosidase, para-fluoro benzyl less active than para-fluoro phenyl): about threefold
Concentrations of precipitation [3]: > 90 µM

Compound: O=C(CSc1nc2ccccc2cc1-c1nc2ccccc2s1)Nc1ccccc1Cl [Compound 8i, 2-((3-(benzo[d]thiazol-2-yl)quinolin-2-yl)thio)-N-(2-chlorophenyl)acetamide]
melting point: 221 to 223 °C
IC50 [2]: 118 ± 1.4 µM
Concentrations of precipitation [3]: > 90 µM

Compound: O=C(CSc1nc2ccccc2cc1-c1nc2ccccc2s1)Nc1ccc([N+](=O)[O-])cc1 [Compound 8m, 2-((3-(benzo[d]thiazol-2-yl)quinolin-2-yl)thio)-N-(4-nitrophenyl)acetamide]
melting point: 209 to 211 °C
IC50 [2]: 198.9 ± 1.5 µM
Concentrations of precipitation [3]: > 90 µM

Compound: O=C(CSc1nc2ccccc2cc1-c1nc2ccccc2s1)Nc1ccc(Cl)cc1 [Compound 8k, 2-((3-(benzo[d]thiazol-2-yl)quinolin-2-yl)thio)-N-(4-chlorophenyl)acetamide]
IC50 [2]: 145 ± 1.5 µM
Concentrations of precipitation [3]: > 90 µM

Compound: Oc1ccc(-c2nnc(-c3ccc(-c4nc5ccccc5s4)cc3)o2)cc1O [E]
IC50 (α-glucosidase [1]; Fig. 2, study of compound E with its acarbose standard): 0.5 ± 0.01 µM

Compound: Cc1ccc(CNC(=O)CSc2nc3ccccc3cc2-c2nc3ccccc3s2)cc1 [Compound 8r, 2-((3-(benzo[d]thiazol-2-yl)quinolin-2-yl)thio)-N-(4-methylbenzyl)acetamide]
melting point: 182 to 184 °C
IC50 [2]: 161.4 ± 0.4 µM
Concentrations of precipitation [3]: > 90 µM

Compound: O=C(CSc1nc2ccccc2cc1-c1nc2ccccc2s1)Nc1ccc(Br)cc1 [Compound 8l, 2-((3-(benzo[d]thiazol-2-yl)quinolin-2-yl)thio)-N-(4-bromophenyl)acetamide]
IC50 [2]: 182.7 ± 1 µM
Concentrations of precipitation [3]: > 90 µM

Compound: O=C(CSc1nc2ccccc2cc1-c1nc2ccccc2s1)Nc1cccc2ccccc12 [Compound 8p, 2-((3-(benzo[d]thiazol-2-yl)quinolin-2-yl)thio)-N-(naphthalen-1-yl)acetamide]
melting point: 198 to 200 °C
IC50 [2]: 139.8 ± 1 µM
Concentrations of precipitation [3]: > 90 µM

Compound: Cc1cccc(C)c1NC(=O)CSc1nc2ccccc2cc1-c1nc2ccccc2s1 [Compound 8f, 2-((3-(benzo[d]thiazol-2-yl)quinolin-2-yl)thio)-N-(2,6-dimethylphenyl)acetamide]
IC50 [2]: 231.6 ± 0.7 µM
Concentrations of precipitation [3]: > 90 µM

Compound: O=C(N/N=C/c1ccc(Cl)cc1)c1ccc(-c2nc3ccccc3s2)cc1 [F]
IC50 (α-glucosidase [1]; Fig. 2, study of compound F with its acarbose standard): 5.31 ± 0.03 µM

Compound: O=C(CSc1nc2ccccc2cc1-c1nc2ccccc2s1)Nc1ccc(F)cc1 [Compound 8h, 2-((3-(benzo[d]thiazol-2-yl)quinolin-2-yl)thio)-N-(4-fluorophenyl)acetamide]
Type of inhibition (α-glucosidase [4]; Lineweaver–Burk plot): non-competitive inhibition
Ki (α-glucosidase [4]; read-out: Ki (inhibition constant)): 38.2 µM
IC50 [2]: 38.2 ± 0.3 µM
Concentrations of precipitation [3]: > 90 µM

Compound: Cc1cccc(NC(=O)CSc2nc3ccccc3cc2-c2nc3ccccc3s2)c1C [Compound 8e, 2-((3-(benzo[d]thiazol-2-yl)quinolin-2-yl)thio)-N-(2,3-dimethylphenyl)acetamide]
IC50 [2]: 130.4 ± 0.5 µM
Concentrations of precipitation [3]: > 90 µM

Compound: O=C(CSc1nc2ccccc2cc1-c1nc2ccccc2s1)Nc1ccccc1 [Compound 8a, 2-((3-(benzo[d]thiazol-2-yl)quinolin-2-yl)thio)-N-phenylacetamide]
IC50 [2]: 299 ± 0.1 µM
Concentrations of precipitation [3]: > 90 µM

Compound: O=C(CSc1nc2ccccc2cc1-c1nc2ccccc2s1)NCc1ccccc1 [Compound 8q, 2-((3-(benzo[d]thiazol-2-yl)quinolin-2-yl)thio)-N-benzylacetamide]
IC50 [2]: 255.6 ± 0.3 µM
Concentrations of precipitation [3]: > 90 µM

Compound: O=C(CSc1nc2ccccc2cc1-c1nc2ccccc2s1)Nc1ccccc1F [Compound 8g, 2-((3-(benzo[d]thiazol-2-yl)quinolin-2-yl)thio)-N-(2-fluorophenyl)acetamide]
melting point: 201 to 203 °C
IC50 [2]: 198.5 ± 0.9 µM
Concentrations of precipitation [3]: > 90 µM

Compound: O=C(CSc1nc2ccccc2cc1-c1nc2ccccc2s1)NCCc1ccccc1 [Compound 8t, 2-((3-(benzo[d]thiazol-2-yl)quinolin-2-yl)thio)-N-phenethylacetamide]
melting point: 225 to 227 °C
IC50 [2]: 222.7 ± 0.9 µM
Concentrations of precipitation [3]: > 90 µM

Compound: O=C(CSc1nc2ccccc2cc1-c1nc2ccccc2[nH]1)Nc1cccc(Cl)c1 [C]
IC50 (α-glucosidase [1]; Fig. 2, study of compound C with its acarbose standard): 3.2 ± 0.3 µM

Compound: CCc1ccc(NC(=O)CSc2nc3ccccc3cc2-c2nc3ccccc3s2)cc1 [Compound 8d, 2-((3-(benzo[d]thiazol-2-yl)quinolin-2-yl)thio)-N-(4-ethylphenyl)acetamide]
IC50 [2]: 194.4 ± 0.8 µM
Concentrations of precipitation [3]: > 90 µM

Compound: O=C(CSc1nc2ccccc2cc1-c1nc2ccccc2s1)Nc1cccc(Cl)c1 [Compound 8j, 2-((3-(benzo[d]thiazol-2-yl)quinolin-2-yl)thio)-N-(3-chlorophenyl)acetamide]
IC50 [2]: 111.7 ± 1.1 µM
Concentrations of precipitation [3]: > 90 µM

Compound: Cc1ccc(NC(=O)CSc2nc3ccccc3cc2-c2nc3ccccc3s2)cc1 [Compound 8c, 2-((3-(benzo[d]thiazol-2-yl)quinolin-2-yl)thio)-N-(p-tolyl)acetamide]
IC50 [2]: 384.3 ± 0.3 µM
Concentrations of precipitation [3]: > 90 µM

Compound: Cc1cccc(C)c1NC(=O)CSc1nc2ccccc2cc1/C=N/NC(=O)c1ccccc1 [D]
IC50 (α-glucosidase [1]; Fig. 2, study of compound D with its acarbose standard): 14 ± 0.6 µM

Compound: Cc1ccccc1NC(=O)CSc1nc2ccccc2cc1-c1nc2ccccc2s1 [Compound 8b, 2-((3-(benzo[d]thiazol-2-yl)quinolin-2-yl)thio)-N-(o-tolyl)acetamide]
melting point: 211 to 213 °C
IC50 [2]: 79.9 ± 1.2 µM
Potency compared to para-isomer (8c) ([2]; α-glucosidase, more potent than 8c): fivefold
Concentrations of precipitation [3]: > 90 µM
